Values joined by “and” are separate entries in the source; they are usually repeats but may differ in a detail not shown here. Equal entries are not always repeated. Structures can show the parent of a compound that is named as a salt.
Experiments:
[1] = rectal (body) temperature of mice measured with medicinal electrothermometer TREM-1; assay type: in vivo, mice of the BALB line; conditions: for body temperature: i.p.
Method: In all cases tests were carried out on mice of the BALB line of 3-4 month age. […] In the case of water-soluble compounds, aqueous solutions of the test compounds were injected intraperitoneally (i.p.), while water-insoluble compounds were introduced orally (p.o.).
Rectal temperature changes (absolute magnitues in ° C.) were measured using a medicinal electrothermometer TREM-1 (Table 1). The rate of oxygen consumption was monitored by measuring concentration of oxygen in a closed testing unit with optic-acoustic gas analyser MN 5130. The data on oxygen consumption are given in percents relative to the starting content of oxygen taken as 100%. (Table 2).
Rectal temperature of mice was followed in dynamics after 5, 15, 30, 60, 120, 180, 240, 300, and 360 minutes (Table 3). […] The same decrease in temperature at 190 mg/kg dosage was reached after 15 minutes; in 1.5 hours it reached 22-25° C. and maintained this level over the next 5 hours, that is 13-17° C. below the initial value. After one day, body temperature was restored to the value of 94-96% of initial.

[2] = lethal dose (LD16, LD50) in mice; assay type: in vivo, mice of the BALB line

## c1ccc(C2=NN=C(N3CCOCC3)SC2)cc1 [Compound 1, 2-Morpholino-5-phenyl-6H-1,3,4-thiadiazine, hydrobromide]
[1]; 190.0 mg/kg i.p., 0 min
  body temperature (T): 39.2 ± 0.1 °C
[1]; 190.0 mg/kg i.p., 10 min
  body temperature (T): 34.9 ± 0.0 °C
[1]; 190.0 mg/kg i.p., 20 min
  body temperature (T): 30.8 ± 0.2 °C
[1]; 190.0 mg/kg i.p., 30 min, hydrobromide
  body temperature (T): 26.9 ± 0.4 °C and 26.9 °C
[1]; 190.0 mg/kg i.p., 40 min
  body temperature (T): 25.9 ± 0.3 °C
[1]; 190.0 mg/kg i.p., 60 min
  body temperature (T): 23.5 ± 0.2 °C
[1]; 190.0 mg/kg i.p., 90 min
  body temperature (T): 21.4 ± 0.2 °C
[1]; 190.0 mg/kg i.p., 120 min
  body temperature (T): 23.0 ± 0.8 °C
[1]; 190.0 mg/kg i.p., 180 min
  body temperature (T): 20.9 ± 0.1 °C
[1]; 190.0 mg/kg i.p., 210 min
  body temperature (T): 21.4 °C
[1]; 190.0 mg/kg i.p., 240 min
  body temperature (T): 21.1 ± 0.1 °C
[1]; 190.0 mg/kg i.p., 270 min
  body temperature (T): 20.8 ± 0.3 °C
[1]; 190.0 mg/kg i.p., 300 min, hydrobromide
  body temperature (T): 20.2 ± 0.0 °C and 20.2 ± 0.2 °C
[1]; 190.0 mg/kg i.p., 330 min
  body temperature (T): 19.8 ± 0.2 °C
[1]; 190.0 mg/kg i.p., 390 min
  body temperature (T): 19.8 ± 0.2 °C
[1]; 190.0 mg/kg i.p., 1140 min
  body temperature (T): 36.9 °C
[1]; 190.0 mg/kg i.p., 1620 min
  body temperature (T): 37.9 ± 0.4 °C
[1]; 190.0 mg/kg i.p., 1980 min
  body temperature (T): 36.9 ± 0.3 °C
[1]; 190 mg/kg i.p., after reaching 22-25° C. in 1.5 hours
  time over which the temperature level was maintained: 5 h
[1]; 190 mg/kg i.p., from 1.5 hours over the next 5 hours
  body temperature below the initial value: 13-17 °C
[1]; 190 mg/kg i.p., in 1.5 hours
  body temperature level reached: 22-25 °C
[1]; 279.0 mg/kg i.p., 0 min
  body temperature (T): 38.9 ± 0.6 °C
[1]; 279.0 mg/kg i.p., 10 min
  body temperature (T): 35.8 ± 0.1 °C
[1]; 279.0 mg/kg i.p., 20 min
  body temperature (T): 30.2 ± 0.1 °C
[1]; 279.0 mg/kg i.p., 30 min
  body temperature (T): 27.1 °C
[1]; 279.0 mg/kg i.p., 40 min
  body temperature (T): 24.7 ± 0.2 °C
[1]; 279.0 mg/kg i.p., 60 min
  body temperature (T): 21.0 ± 0.1 °C
[1]; 279.0 mg/kg i.p., 90 min
  body temperature (T): 20.0 ± 0.1 °C
[1]; 279.0 mg/kg i.p., 120 min
  body temperature (T): 21.0 ± 0.3 °C
[1]; 279.0 mg/kg i.p., 180 min
  body temperature (T): 21.2 ± 0.2 °C
[1]; 279.0 mg/kg i.p., 210 min
  body temperature (T): 21.2 °C
[1]; 279.0 mg/kg i.p., 240 min
  body temperature (T): 20.8 ± 0.1 °C
[1]; 279.0 mg/kg i.p., 270 min
  body temperature (T): 21.5 ± 0.1 °C
[1]; 279.0 mg/kg i.p., 300 min
  body temperature (T): 21.3 ± 0.3 °C
[1]; 279.0 mg/kg i.p., 330 min
  body temperature (T): 22.5 ± 0.3 °C
[1]; 279.0 mg/kg i.p., 390 min
  body temperature (T): 19.4 ± 0.3 °C
[1]; 279.0 mg/kg i.p., 1140 min
  body temperature (T): 20.8 °C
[1]; 279.0 mg/kg i.p., 1620 min
  body temperature (T): 22.6 ± 0.9 °C
[1]; 279.0 mg/kg i.p., 1980 min
  body temperature (T): 21.2 ± 0.3 °C
[1]; 365.0 mg/kg i.p., 0 min
  body temperature (T): 39.6 ± 0.1 °C
[1]; 365.0 mg/kg i.p., 10 min
  body temperature (T): 35.4 ± 0.2 °C
[1]; 365.0 mg/kg i.p., 20 min
  body temperature (T): 30.1 ± 0.2 °C
[1]; 365.0 mg/kg i.p., 30 min
  body temperature (T): 27.2 °C
[1]; 365.0 mg/kg i.p., 40 min
  body temperature (T): 25.5 ± 0.2 °C
[1]; 365.0 mg/kg i.p., 60 min
  body temperature (T): 23.3 ± 0.3 °C
[1]; 365.0 mg/kg i.p., 90 min
  body temperature (T): 21.5 ± 0.2 °C
[1]; 365.0 mg/kg i.p., 120 min
  body temperature (T): 20.9 ± 0.2 °C
[1]; 365.0 mg/kg i.p., 180 min
  body temperature (T): 21.4 ± 0.1 °C
[1]; 365.0 mg/kg i.p., 210 min
  body temperature (T): 21.2 °C
[1]; 365.0 mg/kg i.p., 240 min
  body temperature (T): 21.1 ± 0.0 °C
[1]; 365.0 mg/kg i.p., 270 min
  body temperature (T): 21.4 ± 0.7 °C
[1]; after one day, 190 mg/kg i.p.
  body temperature restored, % of initial: 94-96%
[1]; dose 36.5 mg/kg (1.06 mM/kg) i.p., 300 min
  body temperature (T): 22.1 ± 0.0 °C
[1]; dose 36.5 mg/kg (1.06 mM/kg) i.p., 330 min
  body temperature (T): 21.5 ± 0.1 °C
[1]; dose 36.5 mg/kg (1.06 mM/kg) i.p., 390 min
  body temperature (T): 20.0 ± 0.2 °C
[1]; dose 36.5 mg/kg (1.06 mM/kg) i.p., 1140 min
  body temperature (T): 20.8 °C
[1]; dose 36.5 mg/kg (1.06 mM/kg) i.p., 1620 min
  body temperature (T): 21.6 ± 0.1 °C
[1]; dose 36.5 mg/kg (1.06 mM/kg) i.p., 1980 min
  body temperature (T): 22.1 ± 0.2 °C
[1]; 0 min, mg/kg: cpd 1 190.0, cpd 2 178.0, cpd 5 190.0, cpd 6 160.0
  body temperature: 39.2 °C
[1]; 30 min, mg/kg: cpd 1 190.0, cpd 2 178.0, cpd 5 190.0, cpd 6 160.0
  body temperature: 26.9 °C
[1]; 60 min, mg/kg: cpd 1 190.0, cpd 2 178.0, cpd 5 190.0, cpd 6 160.0
  body temperature: 23.5 °C
[1]; 90 min, mg/kg: cpd 1 190.0, cpd 2 178.0, cpd 6 160.0
  body temperature: 21.4 °C
[1]; 120 min, mg/kg: cpd 1 190.0, cpd 2 178.0, cpd 5 190.0, cpd 6 160.0
  body temperature: 23.0 °C
[1]; 180 min, mg/kg: cpd 1 190.0, cpd 2 178.0, cpd 5 190.0, cpd 6 160.0
  body temperature: 20.9 °C
[1]; 240 min, mg/kg: cpd 1 190.0, cpd 2 178.0, cpd 5 190.0, cpd 6 160.0
  body temperature: 21.1 °C
[1]; 300 min, mg/kg: cpd 1 190.0, cpd 2 178.0, cpd 6 160.0
  body temperature: 20.2 °C
[2]; i.p.
  1/2 LD16, calculated: 140 mg/kg
  1/2 LD16, experimental: 190 mg/kg
  1/16 LD16 (lower end of dose range 1/16 LD16 -LD50): 10 mg/kg
[2]; mouse, in vivo, ip, read-out: LD50 (upper end of dose range 1/16 LD16 -LD50)
  LD50: 365 mg/kg
